Test results taken from article PMC4749519, “Isoprenylated Flavonoids with PTP1B Inhibition from Macaranga denticulata” (Natural Products and Bioprospecting, 2016).

Biological target: T1, protein tyrosine phosphatase 1B (PTP1B) (Homo sapiens, UniProt P18031)
T1 sequence (P18031 1-435): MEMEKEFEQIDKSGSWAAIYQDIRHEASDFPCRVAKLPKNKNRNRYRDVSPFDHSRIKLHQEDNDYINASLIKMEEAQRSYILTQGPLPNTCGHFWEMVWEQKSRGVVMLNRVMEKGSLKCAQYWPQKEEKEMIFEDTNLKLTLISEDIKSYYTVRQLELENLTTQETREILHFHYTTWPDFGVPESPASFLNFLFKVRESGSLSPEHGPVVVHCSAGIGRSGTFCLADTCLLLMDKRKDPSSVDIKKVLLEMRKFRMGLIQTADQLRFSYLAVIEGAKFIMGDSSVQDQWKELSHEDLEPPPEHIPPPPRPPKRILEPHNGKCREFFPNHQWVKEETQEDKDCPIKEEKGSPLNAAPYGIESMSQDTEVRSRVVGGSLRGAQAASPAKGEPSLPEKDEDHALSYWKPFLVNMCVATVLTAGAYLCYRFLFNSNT
Experiment: Assay of PTP1B activity (in vitro enzyme inhibition)
Format: biochemical
Conditions: in vitro PTP1B enzymatic activity; oleanolic acid as positive control; read-out: IC50 ± SD, inhibitory activity against PTP1B
Method: The bioassay procedure was the same as that reported previously. The result of PTP1B inhibition was expressed as IC50, which was calculated with Prism 4 software (Graphpad, San Diego, CA).

`CC(C)=CCC/C(C)=C/Cc1c(O)cc2c(c1O)C(=O)C[C@@H](c1ccc(O)cc1)O2` [Compound 9, bonannione A] was tested. Which IC50 did it give?
The IC50 was 14 ± 1.2 µM.

Which IC50 does the source give for `CC(C)=CCC/C(C)=C/Cc1c(O)cc2c(c1O)C(=O)[C@H](O)[C@@H](c1ccc(O)cc1)O2` [Compound 8, bonanniol A] here?
Its IC50 is 15.2 ± 2.8 µM.

For `CC1(C)C=Cc2c(O)c(C(=O)/C=C/c3ccc(O)cc3)c3c(c2O1)C=CC(C)(C)O3` [Compound 6, laxichalcone], which IC50 is on record?
Its IC50 is 20.7 ± 5.3 µM.

Which IC50 does the source give for `CC(C)=CCC/C(C)=C/Cc1c(O)cc2oc(-c3ccc(O)cc3)c(O)c(=O)c2c1O` [Compound 7, macarangin] here?
Its IC50 is 22.7 ± 4.6 µM.

Which IC50 does the source give for `COc1ccc(/C=C/C(=O)c2c(O)c(C)c(O)c3c2OC(C)(C)C=C3)cc1` [Compound 4, (2E)-1-(5,7-dihydroxy-2,2,6-trimethyl-2H-benzopyran-8-yl)-3-(4-methoxyphenyl)-2-propen-1-one] here?
Its IC50 is 48.8 ± 5.5 µM.

`CC1(C)C=Cc2c(O)cc(O)c(C(=O)/C=C/c3ccccc3)c2O1` [Compound 5, (2E)-1-(5,7-dihydroxy-2,2-dimethyl-2H-benzopyran-8-yl)-3-phenyl-2-propen-1-one] was tested. Which IC50 did it give?
Its IC50 is 19.3 ± 1.4 µM.
